Reference: patent US20220324913A1, “ANTIGENIC NEURON SPECIFIC ENOLASE PEPTIDES FOR DIAGNOSING AND TREATING AUTISM” (THE REGENTS OF THE UNIVERSITY OF CALIFORNIA, priority 2019, published 2022)

What was measured:
[1] = tested on: maternal autoantibodies (plasma from mothers of ASD and TD children); test: ELISA of maternal plasma reactivity to recombinant NSE; assay type: binding, human; conditions: for Reactivity observed, number of mothers: plasma 1:500
Procedure: Once NSE was identified as a viable antigenic candidate by WB, we evaluated a larger sample set for NSE reactivity using an ELISA method. We tested plasma from 418 mothers enrolled in the CHARGE study with at least one child with ASD (n=232) or control samples from mothers of typically developing children (TD; n=186). Microtiter plates were coated with 100 μl of NSE (Novus Biologicals, Littleton, Colo.) at 2 μg/ml in carbonate coating buffer pH 9.6, incubated overnight at 4° C., washed four times with PBST 0.05%, and blocked with 2% Super Block (Thermo Scientific, Rockford, Ill.) for 1 hour at room temperature (RT). The plasma samples were diluted 1:500 and run in duplicate. Following dilution, 100 μl of diluted sample was added to each well, incubated for 1.5 hours, washed 4×, then incubated with 1:10,000 goat anti-human IgG-HRP IgG (Kirkegaard & Perry Laboratories, Inc., Gaithersburg, Mass.) for 1 hour. The plates were then washed and detection was performed by adding 100 μl of BD optEIA liquid substrate for ELISA (BD Biosciences, San Jose, Calif.). After 4 minutes, the reaction was stopped with 50 μl of 2N HCl. The absorbance was measured at 490-450 nm using an iMark Microplate Absorbance Reader (Biorad, Hercules, Calif., USA).
For the ELISA assay, positive cutoff values for reactivity to NSE were determined using a ROC curve. The ROC curve was created by plotting the true positive rate against the false positive rate at various threshold settings. We therefore created our curve using seven positive samples (labeled as +) from mothers that have a child with ASD and were positive by WB (true positive samples) along with the test samples. By using the positive samples as the reference event, the cutoff has greater specificity (less false positives) although sacrificing some sensitivity (limit of detection). The ROC plots sensitivity versus 1−Specificity for each value creating an Area Under the Curve (AUC) that is a representation of the accuracy of the test. Youden's index was used to calculate the cutoff.
NSE was identified by mass spectrometry as a potential target of the maternal autoantibodies and, based on its critical role in neurodevelopment, we chose to further evaluate NSE as a potential MAR ASD biomarker. Recombinant NSE was used to verify maternal autoantibody reactivity first by WB followed by ELISA. […] Therefore, we utilized an approach similar to that used for the seven previously-described MAR autoantigens to probe the samples for differential epitope recognition between ASD and TD groups.

maternal autoantibodies = test: Western blot of recombinant proteins probed with maternal plasma; assay type: binding, human; conditions: compared with NNE, ALDOC and CKB; plasma 1:800
Procedure: To test autoantibody reactivity to FMB Fraction #12 that contained proteins between 37-45 kDa, the fraction was probed with maternal plasma samples as described previously (FIG. 1D). In summary, 200 μg of protein were denatured by heating at 100° C. for 10 min in SDS buffer and separated on a 12% SDS-PAGE gel at 200V for 1 hour. Proteins were transferred to a 0.2 μm nitrocellulose membrane overnight (10V for 16 hours) at 4° C. To confirm the transfer, the membrane was stained with Ponceau dye and cut into 3 mm strips that were labeled and blocked with 1% casein buffer. Plasma samples were then diluted (1:400), added to the strips, incubated for 1.5 hours at RT followed by five washes, and incubated with 1:20,000 goat anti-human IgG-HRP for 30 minutes. After five washes, detection was performed by adding 800 μl of Super Signal substrate and strips were placed on a glass plate to be imaged using the FluoroChem 8900 imager. Images were scored as 0 if negative and 1 if positive.
The top 4 commercially available antigens identified by mass spectrometry with a 100 C.I. were selected for further evaluation. To evaluate antibody reactivity against our top hits including NSE, NNE, ALDOC, and CKB, 2 μg protein of recombinant protein (Novus Biologicals, Littleton, Colo.) were probed with diluted maternal plasma (1:800) by WB as described previously. […]

NSE: recombinant neuron specific enolase protein (Novus Biologicals), target autoantigen of maternal autoantibodies
Reactivity observed, percent of mothers ([1]; mothers that had a child with ASD): 6.2% | Reactivity observed, percent of mothers ([1]; mothers that have a typically developing child (TD)): 5% | Reactivity observed, number of mothers ([1]; of 186 mothers that have a typically developing child): 21 | Reactivity observed, number of mothers ([1]; of the 232 mothers that had a child with ASD): 26 | Maternal autoantibody reactivity against recombinant protein (maternal autoantibodies): greatest specificity
